How the values were obtained:
Assay in all cases: NCI60 antitumor screening
Assay type in all cases: cell-based, human
K-562 = details: for inhibition at 10 µM: Homo sapiens, 10 μM single dose, (leukaemia), read-out: growth inhibition percent (GI%)
RPMI-8226 = details: Homo sapiens; 10 μM single dose; RPMI-8226 (leukaemia); read-out: growth inhibition percent (GI%)
SR = details: for inhibition at 10 µM: Homo sapiens, 10 μM single dose, SR (leukaemia), read-out: growth inhibition percent (GI%)
A549/ATCC = details: Homo sapiens; 10 μM single dose; A549/ATCC (non-small cell lung cancer); read-out: growth inhibition percent (GI%)
HOP-62 = details: for inhibition at 10 µM: Homo sapiens, 10 μM single dose, HOP-62 (non-small cell lung cancer), read-out: growth inhibition percent (GI%)
HOP-92 = details: Homo sapiens; 10 μM single dose; HOP-92 (non-small cell lung cancer); read-out: growth inhibition percent (GI%)
NCI-H226 = details: for inhibition at 10 µM: Homo sapiens, 10 μM single dose, NCI-H226 (non-small cell lung cancer), read-out: growth inhibition percent (GI%)
NCI-H522 = details: Homo sapiens; 10 μM single dose; NCI-H522 (non-small cell lung cancer); read-out: growth inhibition percent (GI%)
KM12 = details: Homo sapiens; 10 μM single dose; KM12 (colon cancer); read-out: growth inhibition percent (GI%)
SW-620 = details: Homo sapiens; 10 μM single dose; SW-620 (colon cancer); read-out: growth inhibition percent (GI%)
SNB-19 = details: Homo sapiens; 10 μM single dose; SNB-19 (CNS cancer); read-out: growth inhibition percent (GI%)
SNB-75 = details: for inhibition at 10 µM: Homo sapiens, 10 μM single dose, SNB-75 (CNS cancer), read-out: growth inhibition percent (GI%)
U251 = details: Homo sapiens, U-251; 10 μM single dose; U251 (CNS cancer); read-out: growth inhibition percent (GI%)
LOX IMVI = details: Homo sapiens; 10 μM single dose; LOX IMVI (melanoma); read-out: growth inhibition percent (GI%)
MALME-3M = details: Homo sapiens; 10 μM single dose; MALME-3M (melanoma); read-out: growth inhibition percent (GI%)
MDA-MB-435 = details: Homo sapiens; 10 μM single dose; MDA-MB-435 (melanoma); read-out: growth inhibition percent (GI%)
UACC-257 = details: Homo sapiens; 10 μM single dose; UACC-257 (melanoma); read-out: growth inhibition percent (GI%)
OVCAR-8 = details: Homo sapiens; 10 μM single dose; OVCAR-8 (ovarian cancer); read-out: growth inhibition percent (GI%)
SK-OV-3 = details: Homo sapiens; 10 μM single dose; SK-OV-3 (ovarian cancer); read-out: growth inhibition percent (GI%)
786–0 = details: for inhibition at 10 µM: Homo sapiens, 10 μM single dose, 786–0 (renal cancer), read-out: growth inhibition percent (GI%)
CAKI-1 = details: Homo sapiens; 10 μM single dose; CAKI-1 (renal cancer); read-out: growth inhibition percent (GI%)
RXF 393 = details: for inhibition at 10 µM: Homo sapiens, 10 μM single dose, RXF 393 (renal cancer), read-out: growth inhibition percent (GI%)
TK-10 = details: Homo sapiens; 10 μM single dose; TK-10 (renal cancer); read-out: growth inhibition percent (GI%)
DU-145 = details: Homo sapiens, DU-145; read-out: growth inhibition percent (GI%)
MCF7 = details: Homo sapiens; 10 μM single dose; MCF7 (breast cancer); read-out: growth inhibition percent (GI%)
MDA-MB-231/ATCC = details: Homo sapiens; 10 μM single dose; MDA-MB-231/ATCC (breast cancer); read-out: growth inhibition percent (GI%)
MDA-MB-468 = details: Homo sapiens; 10 μM single dose; MDA-MB-468 (breast cancer); read-out: growth inhibition percent (GI%)

Row | Compound | inhibition at 10 µM (K-562) | inhibition at 10 µM (RPMI-8226) | inhibition at 10 µM (SR) | inhibition at 10 µM (A549/ATCC) | inhibition at 10 µM (HOP-62) | inhibition at 10 µM (HOP-92) | inhibition at 10 µM (NCI-H226) | inhibition at 10 µM (NCI-H522) | inhibition at 10 µM (KM12) | inhibition at 10 µM (SW-620) | inhibition at 10 µM (SNB-19) | inhibition at 10 µM (SNB-75) | inhibition at 10 µM (U251) | inhibition at 10 µM (LOX IMVI) | inhibition at 10 µM (MALME-3M) | inhibition at 10 µM (MDA-MB-435) | inhibition at 10 µM (UACC-257) | inhibition at 10 µM (OVCAR-8) | inhibition at 10 µM (SK-OV-3) | inhibition at 10 µM (786–0) | other results
1 | CN1CCN(c2nc(SCc3ccc(F)cc3)nc(-c3ccc(F)cc3)c2C#N)CC1 [4j, 2-((4-Fluorobenzyl)thio)-4-(4-fluorophenyl)-6-(4-methylpiperazin-1-yl)pyrimidine-5-carbonitrile] | 18.5% | 15% | < 10% | 27.7% | 64.4% | 66.2% | 37.8% | 23.6% | < 10% | < 10% | 40.3% | 74.9% | 26.2% | 22.9% | 39.5% | < 10% | < 10% | 32% | 55.5% | 67.1% | GI% (K-562; 10 μM one-dose, Table 1): — (GI value > 70%); GI% (SR; 10 μM one-dose, Table 1): — (GI value > 70%); GI% (HOP-62; 10 μM one-dose, Table 1): — (GI value > 70%); GI% (NCI-H226; 10 μM one-dose, Table 1): — (GI value > 70%); GI% (SNB-75; 10 μM one-dose, Table 1): 74.91%; GI% (786–0; 10 μM one-dose, Table 1): — (GI value > 70%); inhibition at 10 µM (CAKI-1): 57.5%; GI% (RXF 393; 10 μM one-dose, Table 1): 80.61%; inhibition at 10 µM (RXF 393): 80.6%; inhibition at 10 µM (TK-10): 15%; inhibition at 10 µM (DU-145): < 10%; inhibition at 10 µM (MCF7): 14.8%; inhibition at 10 µM (MDA-MB-231/ATCC): 45.8%; inhibition at 10 µM (MDA-MB-468): 23.6%
2 | Cc1ccc(CSc2nc(-c3ccc(F)cc3)c(C#N)c(N3CCNCC3)n2)cc1 [4h, 4-(4-Fluorophenyl)-2-((4-methylbenzyl)thio)-6-(piperazin-1-yl)pyrimidine-5-carbonitrile] | < 10% | < 10% | < 10% | < 10% | < 10% | < 10% | < 10% | < 10% | < 10% | < 10% | < 10% | 19.5% | < 10% | < 10% | < 10% | < 10% | < 10% | < 10% | < 10% | < 10% | inhibition at 10 µM (CAKI-1): 11.7%; inhibition at 10 µM (RXF 393): < 10%; inhibition at 10 µM (TK-10): < 10%; inhibition at 10 µM (DU-145): < 10%; inhibition at 10 µM (MCF7): < 10%; inhibition at 10 µM (MDA-MB-231/ATCC): < 10%; inhibition at 10 µM (MDA-MB-468): < 10%
3 | Cc1ccc(CSc2nc(-c3ccc(F)cc3)c(C#N)c(N3CCN(C)CC3)n2)cc1 [4l, 4-(4-Fluorophenyl)-2-((4-methylbenzyl)thio)-6-(4-methylpiperazin-1-yl) pyrimidine-5-carbonitrile] | 28.6% | 15.5% | < 10% | 13.1% | 12.8% | 39.3% | < 10% | 33.4% | < 10% | < 10% | 14.3% | 35.6% | < 10% | 12.8% | 11.7% | < 10% | < 10% | 11.9% | < 10% | 44.2% | inhibition at 10 µM (CAKI-1): 36.9%; inhibition at 10 µM (RXF 393): 42.4%; inhibition at 10 µM (TK-10): < 10%; inhibition at 10 µM (DU-145): < 10%; inhibition at 10 µM (MCF7): 12.8%; inhibition at 10 µM (MDA-MB-231/ATCC): 28.9%; inhibition at 10 µM (MDA-MB-468): < 10%

Source: article PMC10620772, “Design, synthesis, and biological evaluation of new pyrimidine-5-carbonitrile derivatives as novel anti-cancer, dual EGFR^WT/COX-2 inhibitors with docking studies” (RSC Advances, 2023)
